Our source for the IC50, Activity and inhibition in vivo values is ChEMBL document CHEMBL1153816, “Novel N-substituted 4-hydrazino piperidine derivative as a dipeptidyl peptidase IV inhibitor” (Bioorg Med Chem Lett, 2009).

The target in one test is Dipeptidyl peptidase 4 (Sus scrofa, UniProt P22411). Put plainly: Inhibition of pig kidney DPP4 by spectrophotometric method.
Test [1] deals with Rattus norvegicus. Nature of the test: Antidiabetic activity in ZDF rat diabetic model assessed as decrease in glucose excursion at 44 mg/kg, po administered BID for 6 weeks by OGTT. It is filed as functional, organism-based. Details: dose 44 mg/kg.
The subject of test [2] is Rattus norvegicus. Put plainly: Antidiabetic activity in ZDF rat diabetic model assessed as increase in insulin release at 44 mg/kg, po administered BID for 6 weeks by sandwich ELISA. In kind it is functional, organism-based. Details: dose 44 mg/kg. On the technique in general: ELISA stands for enzyme-linked immunosorbent assay.
In test [3] the test system is Rattus norvegicus. Put plainly: Inhibition of DPP4 in n5-STZ rat at 22 mg/kg, po administered as single dose after 4 hrs relative to vehicle treated control.
Test [4] deals with Rattus norvegicus. Nature of the test: Antidiabetic activity in n5-STZ rat diabetic model assessed as decrease in glucose AUC at 44 mg/kg, po administered as single dose by OGTT.
Test [5] deals with Rattus norvegicus. Nature of the test: Antidiabetic activity in n5-STZ rat diabetic model assessed as decrease in glucose excursion at 44 mg/kg, po administered as single dose by OGTT.
Test [6] relates to Rattus norvegicus. Put plainly: Antidiabetic activity in n5-STZ rat diabetic model assessed as stimulation of insulin response at 44 mg/kg, po administered as single dose by sandwich ELISA.

pIC50: −log10 of the molar value. Calls of active or inactive are those of the source. The rule behind the calls is not given here.

Chain of Dipeptidyl peptidase 4 (P22411 whole entry): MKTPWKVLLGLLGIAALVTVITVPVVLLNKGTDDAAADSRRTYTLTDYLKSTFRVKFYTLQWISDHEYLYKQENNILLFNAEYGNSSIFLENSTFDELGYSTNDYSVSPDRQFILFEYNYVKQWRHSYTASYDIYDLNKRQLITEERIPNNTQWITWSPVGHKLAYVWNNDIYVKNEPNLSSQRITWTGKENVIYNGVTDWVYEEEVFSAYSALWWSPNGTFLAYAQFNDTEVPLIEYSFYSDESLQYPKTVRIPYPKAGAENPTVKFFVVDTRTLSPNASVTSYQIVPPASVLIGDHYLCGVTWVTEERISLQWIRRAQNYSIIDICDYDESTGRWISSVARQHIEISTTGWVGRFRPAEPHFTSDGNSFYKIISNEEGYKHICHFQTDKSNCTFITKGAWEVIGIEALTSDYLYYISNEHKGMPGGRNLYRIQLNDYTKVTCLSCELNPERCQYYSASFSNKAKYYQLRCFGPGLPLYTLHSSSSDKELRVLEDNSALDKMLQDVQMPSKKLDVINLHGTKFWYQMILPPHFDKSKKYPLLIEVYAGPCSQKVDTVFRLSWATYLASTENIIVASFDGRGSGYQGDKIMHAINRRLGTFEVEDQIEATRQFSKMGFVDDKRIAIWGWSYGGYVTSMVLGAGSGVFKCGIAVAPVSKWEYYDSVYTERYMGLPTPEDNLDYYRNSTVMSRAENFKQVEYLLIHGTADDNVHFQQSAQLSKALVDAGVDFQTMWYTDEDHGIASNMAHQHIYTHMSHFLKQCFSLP

Usually pIC50 stands for −log10 of the IC50, conventionally taken in molar units. Low values mean a high IC50, high ones a low IC50. `COc1ccc(S(=O)(=O)N2CCC(N(N)CC(=O)N3CSC[C@H]3C#N)CC2)cc1`: the pIC50 against Dipeptidyl peptidase 4 was 5.18.

Take `N#C[C@@H]1CSCN1C(=O)CN(N)C1CCN(COc2ccccc2)CC1`: the negative logarithm of the IC50 (pIC50) against Dipeptidyl peptidase 4 was 6.20.

As usually defined, the inhibition in vivo is the relative decrease from the control value, in per cent. As to `N#C[C@@H]1CSCN1C(=O)CN(N)C1CCN(CC(=O)Nc2ccc(Cl)cn2)CC1`, the outcome with Rattus norvegicus [1], in the test with Rattus norvegicus [2], in the test with Rattus norvegicus [4], with Rattus norvegicus [5] and with Rattus norvegicus [6] was Active. The inhibition in vivo at 22 mg/kg with Rattus norvegicus [3] worked out at 39.8%.

`N#Cc1cc(CN2CCC(N(N)CC(=O)N3CSC[C@H]3C#N)CC2)ccc1-c1ccccc1` gave a pIC50 on Dipeptidyl peptidase 4 of 5.99.

In the case of `N#C[C@@H]1CSCN1C(=O)CN(N)C1CCN(Cc2cccnc2)CC1`, the pIC50 against Dipeptidyl peptidase 4 is 5.32.

`N#C[C@@H]1CCCN1C(=O)CN(N)C1CCN(CC(=O)Nc2ccc(Cl)cn2)CC1` gave a pIC50 against Dipeptidyl peptidase 4 of 5.43.

With `N#C[C@@H]1CSCN1C(=O)CN(N)C1CCN(CC(=O)Nc2ccc(C(F)(F)F)cc2)CC1`, on Dipeptidyl peptidase 4, the pIC50 is 6.51.

`N#C[C@@H]1CSCN1C(=O)CN(N)C1CCN(CC(=O)Nc2ncc(Br)s2)CC1` gave a pIC50 against Dipeptidyl peptidase 4 of 6.65.

On Dipeptidyl peptidase 4, `CC(C)OCCCNC(=O)CN1CCC(N(N)CC(=O)N2CSC[C@H]2C#N)CC1` had a negative logarithm of the IC50 (pIC50) of 6.33. This pIC50 lies 0.32 log units lower than the previous one.

`CCNN(CC(=O)N1CSC[C@H]1C#N)C1CCN(CC(=O)Nc2ccc(Cl)cn2)CC1` had a pIC50 against Dipeptidyl peptidase 4 of 6.31.

Regarding `N#C[C@@H]1CSCN1C(=O)CN(N)C1CCN(CC(=O)Nc2ccc(S(N)(=O)=O)cc2)CC1` [listing 1 of 2 here], at Dipeptidyl peptidase 4, the pIC50 is 7.05.

`N#C[C@@H]1CSCN1C(=O)CN(N)C1CCN(Cc2ccc([N+](=O)[O-])cc2)CC1`: the pIC50 against Dipeptidyl peptidase 4 was 6.16.

On to `N#C[C@@H]1CSCN1C(=O)CN(N)C1CCN(CC(=O)NC2CC2)CC1` [listing 1 of 2 here], for which the pIC50 against Dipeptidyl peptidase 4 is 6.66.

As for `N#C[C@@H]1CSCN1C(=O)CN(N)C1CCN(CC(=O)NC23CC4CC(CC(C4)C2)C3)CC1`, on Dipeptidyl peptidase 4, the pIC50 was 6.28.

`N#C[C@@H]1CSCN1C(=O)CN(N)C1CCN(CC(=O)NC2CCCCC2)CC1` gave a pIC50 against Dipeptidyl peptidase 4 of 6.30.

With `CC(=O)N1CCC(N(N)CC(=O)N2CSC[C@H]2C#N)CC1`, the pIC50 on Dipeptidyl peptidase 4 is 5.81.

For `N#C[C@@H]1CSCN1C(=O)CN(N)C1CCN(Cc2ccc(F)cc2)CC1`, the pIC50 on Dipeptidyl peptidase 4 was 5.65.

`N#C[C@@H]1CSCN1C(=O)CN(N)C1CCN(C(=O)N2CCOCC2)CC1` gave a pIC50 at Dipeptidyl peptidase 4 of 6.10.

`CS(=O)(=O)N1CCC(N(N)CC(=O)N2CSC[C@H]2C#N)CC1` showed a pIC50 against Dipeptidyl peptidase 4 of 5.84.

In turn, `N#C[C@@H]1CSCN1C(=O)CN(N)C1CCN(C(=O)c2cccc(Cl)c2Cl)CC1` showed a pIC50 at Dipeptidyl peptidase 4 of 5.75.

On to `N#Cc1ccc(NC(=O)CN2CCC(N(N)CC(=O)N3CSC[C@H]3C#N)CC2)nc1` [listing 1 of 2 here], for which the pIC50 against Dipeptidyl peptidase 4 was 6.96.

On to `COCCNC(=O)CN1CCC(N(N)CC(=O)N2CSC[C@H]2C#N)CC1`, for which the pIC50 against Dipeptidyl peptidase 4 was 5.99.

`Cc1ccc(S(=O)(=O)N2CCC(N(N)CC(=O)N3CSC[C@H]3C#N)CC2)cc1` gave a pIC50 at Dipeptidyl peptidase 4 of 5.57.

`Cc1nc(NC(=O)CN2CCC(N(N)CC(=O)N3CSC[C@H]3C#N)CC2)sc1C` gave a pIC50 against Dipeptidyl peptidase 4 of 6.73.

`N#C[C@@H]1CSCN1C(=O)CN(N)C1CCN(S(=O)(=O)c2ccc(Cl)cc2)CC1` gave a pIC50 against Dipeptidyl peptidase 4 of 5.84. Against the preceding compound, the pIC50 is 0.89 log units lower.

For `COC(=O)NN(CC(=O)N1CSC[C@H]1C#N)C1CCN(CC(=O)Nc2ccc(Cl)cn2)CC1`, the pIC50 on Dipeptidyl peptidase 4 was 4.42.

On Dipeptidyl peptidase 4, `N#Cc1ccc(NC(=O)CN2CCC(N(N)CC(=O)N3CSC[C@H]3C#N)CC2)nc1` [listing 2 of 2 here] gave a pIC50 of 6.89. This pIC50 lies 2.47 log units higher than the previous one.

Regarding `N#C[C@@H]1CSCN1C(=O)CN(N)C1CCN(CC(=O)NC2CC2)CC1` [listing 2 of 2 here], the pIC50 against Dipeptidyl peptidase 4 is 6.63.

Consider `CC1CCC(C(=O)N2CCC(N(N)CC(=O)N3CSC[C@H]3C#N)CC2)CC1` (some centres not stated), for which, on Dipeptidyl peptidase 4, the pIC50 was 6.06.

For `N#C[C@@H]1CSCN1C(=O)CN(N)C1CCN(CC(=O)Nc2ccc(S(N)(=O)=O)cc2)CC1` [listing 2 of 2 here], the negative logarithm of the IC50 (pIC50) against Dipeptidyl peptidase 4 is 7.01. Against the preceding compound, the pIC50 is 0.95 log units higher.

On to `N#C[C@@H]1CSCN1C(=O)CN(N)C1CCN(Cc2ccccc2)CC1`, for which the pIC50 on Dipeptidyl peptidase 4 was 5.79.

Take `CN(CCN)C(=O)N1CCC(N(N)CC(=O)N2CSC[C@H]2C#N)CC1`: at Dipeptidyl peptidase 4, the pIC50 was 5.91.

As for `N#C[C@@H]1CSCN1C(=O)CN(N)C1CCN(C(=O)CN2CCOCC2)CC1`, at Dipeptidyl peptidase 4, the negative-log IC50 (pIC50) is 6.08.

With `N#C[C@@H]1CSCN1C(=O)CN(N)C1CCN(CC(=O)Nc2ccc3c(c2)OCO3)CC1`, the pIC50 on Dipeptidyl peptidase 4 is 6.62.

Take `N#Cc1ccc(NC(=O)CN2CCC(N(N)CC(=O)N3CSC[C@H]3C#N)CC2)cc1`: on Dipeptidyl peptidase 4, the negative logarithm of the IC50 (pIC50) was 6.70. This pIC50 and that of the compound before are within 0.2 log units of each other.

For `CCNN(CC(=O)N1CSC[C@H]1C#N)C1CCN(S(C)(=O)=O)CC1`, at Dipeptidyl peptidase 4, the pIC50 is 5.43.

Regarding `N#C[C@@H]1CSCN1C(=O)CN(N)C1CCN(CC(=O)Nc2ncccn2)CC1`, the negative logarithm of the IC50 (pIC50) against Dipeptidyl peptidase 4 was 6.84.

As to `N#C[C@@H]1CSCN1C(=O)CN(N)C1CCN(CC(=O)NCc2ccccc2F)CC1`, the pIC50 at Dipeptidyl peptidase 4 was 6.29.

For the compound `N#C[C@@H]1CSCN1C(=O)CN(N)C1CCN(CC(=O)Nc2nc3ccccc3s2)CC1`, the pIC50 against Dipeptidyl peptidase 4 was 6.87.

In turn, `N#C[C@@H]1CSCN1C(=O)CN(N)C1CCN(CC(=O)Nc2ccc(F)c(Cl)c2)CC1` gave a pIC50 against Dipeptidyl peptidase 4 of 6.44. This pIC50 lies 0.43 log units lower than the previous one.

For `N#C[C@@H]1CSCN1C(=O)CN(N)C1CCNCC1`, the pIC50 against Dipeptidyl peptidase 4 is 4.92. Against the preceding compound, the pIC50 is 1.52 log units lower.

On to `CC(C)(C)C(=O)N1CCC(N(N)CC(=O)N2CSC[C@H]2C#N)CC1`, for which, at Dipeptidyl peptidase 4, the pIC50 is 5.38. This pIC50 is 0.46 log units higher than that of the compound before.
